From US9187496B2 (priority 2009, dated 2015)
Like-named read-outs stand apart in the source and are kept apart here.

Columns and labels:
[1] = system: Huh-7 cells containing HCV Con1 subgenomic replicon (GS4.1 cells); test: HCV replicon assay (NS5A ELISA); format: cell-based
Method: General Procedure: Huh-7 cells containing HCV Con1 subgenomic replicon (GS4.1 cells) were grown in Dulbecco's Modified Eagle Medium (DMEM) supplemented with 10% fetal bovine serum (FBS), 2 mM L-glutamine, 110 mg/L sodium pyruvate, 1× non-essential amino acids, 100 U/mL penicillin-streptomycin, and 0.5 mg/mL G418 (Invitrogen). For dose-response testing, the cells were seeded in 96-well plates at 7.5×10^3 cells/well in a volume of 50 μL, and incubated at 37° C./5% CO2. Three hours after plating, 50 μL of ten 2-fold serial dilutions of compounds (highest concentration, 75 μM) were added, and cell cultures were incubated at 37° C./5% CO2 in the presence of 0.5% DMSO. Alternatively, compounds were tested at a single concentration of 15 μM. In all cases, Huh-7 cells lacking the HCV replicon served as negative control. The cells were incubated in the presence of compounds for 72 hrs after which they were monitored for expression of the NS5A protein by enzyme-linked immunosorbent assay (ELISA). For this, the plates were then fixed for 1 min with acetone/methanol (1:1, v/v), washed twice with phosphate-buffered saline (PBS), 0.1% Tween 20, blocked for 1 hr at room temperature with TNE buffer containing 10% FBS and then incubated for 2 hr at 37° C. with the anti-NS5A mouse monoclonal antibody A-236 (ViroGen) diluted in the same buffer. After washing three times with PBS, 0.1% Tween 20, the cells were incubated 1 hr at 37° C. with anti-mouse immunoglobulin G-peroxidase conjugate in TNE, 10% FBS. After washing as described above, the reaction was developed with O-phenylenediamine (Zymed). The reaction was stopped after 30 min with 2 N H2SO4, and absorbance was read at 492 nm using Sunrise Tecan spectrophotometer. EC50 values were determined from the % inhibition versus concentration data using a sigmoidal non-linear regression analysis based on four parameters with Tecan Magellan software.

GS4.1 cells = test: Cytotoxicity evaluation in GS4.1 cells (Cell Titer 96 AQueous One); format: cell-based, human; conditions: cellular viability
Method: For cytotoxicity evaluation, GS4.1 cells were treated with compounds as described above and cellular viability was monitored using the Cell Titer 96 AQueous One Solution Cell Proliferation Assay (Promega). CC50 values were determined from the % cytotoxicity versus concentration data with Tecan Magellan software as described above.

[2] = Hepatitis C virus, Huh-7, GS4.1 cells, 72 hrs, NS5A ELISA, read-out: EC50
[3] = GS4.1 cells, 72 hrs, NS5A ELISA, read-out: EC50

COC(=O)N[C@H](C(=O)N1CCCC1c1ncc(-c2cn3cc(-c4ccc(-c5cnc([C@@H]6CCCN6C(=O)[C@@H](NC(=O)OC)C(C)C)[nH]5)cc4)nc3s2)[nH]1)C(C)C (stereo partly shown) [A7]
EC50 [1, 2]: < 1 nM
CC50 (GS4.1 cells): > 75000 nM

CC(C)(C)OC(=O)N[C@@H](C(=O)N1CCC[C@H]1C(=O)Nc1cn2cc(-c3ccccc3)sc2n1)c1ccccc1 [A27]
EC50 [1, 2]: 10 to 100 nM
CC50 (GS4.1 cells): > 75000 nM

CC(C)(C)OC(=O)Nc1ccc(-c2cn3cc(NC(=O)[C@@H]4CCCN4C(=O)[C@H](NC(=O)OC(C)(C)C)c4ccccc4)nc3s2)cc1 [A29]
EC50 [1, 2]: > 100 nM
CC50 (GS4.1 cells): 10000 to 75000 nM

COC(=O)N[C@H](C(=O)N1CCC[C@H]1c1ncc(-c2ccc(-c3cn4cc(NC(=O)C5CCCN5C(=O)CNC(=O)OC(C)(C)C)nc4s3)cc2)[nH]1)C(C)C (stereo partly shown) [A31]
EC50 [1, 2]: 10 to 100 nM
CC50 (GS4.1 cells): > 75000 nM

COC(=O)N[C@H](C(=O)N1CCC[C@H]1C(=O)Nc1ccc(-c2cn3cc(NC(=O)C4CCCN4C(=O)[C@@H](NC(=O)OC)C(C)C)nc3s2)cc1)c1ccccc1 (stereo partly shown) [A32]
EC50 [1, 2]: < 1 nM
CC50 (GS4.1 cells): > 75000 nM

COC(=O)N[C@H](C(=O)N1CCC[C@H]1c1ncc(-c2ccc(-c3cn4cc(-c5cnc(C6CCCN6C(=O)[C@@H](NC(=O)OC(C)(C)C)c6ccccc6)[nH]5)nc4s3)cc2)[nH]1)C(C)C (stereo partly shown) [A33]
EC50 [1, 2]: < 1 nM
CC50 (GS4.1 cells): > 75000 nM

COC(=O)N[C@H](C(=O)N1CCC[C@H]1C(=O)Nc1ccc(-c2cn3cc(NC(=O)OC(C)(C)C)nc3s2)cc1)C(C)C [A34]
EC50 [1, 3]: 1 to 10 nM
CC50 (GS4.1 cells): 10000 to 75000 nM

COC(=O)N[C@H](C(=O)N1CCCC1c1ncc(-c2ccc(-c3csc4c(-c5cnc(C6CCCN6C(=O)OCc6ccccc6)[nH]5)csc34)cc2)[nH]1)C(C)C (stereo partly shown) [A49]
EC50 [1, 2]: < 1 nM
CC50 (GS4.1 cells): > 75000 nM

COC(=O)N[C@H](C(=O)N1CCC[C@H]1c1ncc(-c2ccc(-c3cn4cc(NC(=O)[C@@H]5CCCN5C(=O)[C@H](NC(=O)OC(C)C)c5ccccc5)nc4s3)cc2)[nH]1)C(C)C [A56]
EC50 [1, 2]: < 1 nM
CC50 (GS4.1 cells): > 75000 nM

COC(=O)N[C@H](C(=O)N1CCC[C@H]1c1ncc(-c2ccc(-c3cn4cc(NC(=O)[C@@H]5CCCN5C(=O)[C@H](NC(=O)OCC(C)C)c5ccccc5)nc4s3)cc2)[nH]1)C(C)C [A57]
EC50 [1, 3]: < 1 nM
CC50 (GS4.1 cells): > 75000 nM

COC(=O)N[C@H](C(=O)N1CCCC1c1ncc(-c2ccc(-c3csc4c(-c5cnc(C6CCCN6C(=O)[C@@H](NC(=O)OC(C)(C)C)C(C)C)[nH]5)csc34)cc2)[nH]1)C(C)C (stereo partly shown) [A76]
EC50 [1, 2]: < 1 nM
CC50 (GS4.1 cells): > 75000 nM

COC(=O)N[C@H](C(=O)N1CCCC1c1ncc(-c2ccc(-c3csc4c(-c5cnc(C6CCCN6C(=O)[C@H](NC(=O)OC)C(C)C)[nH]5)csc34)cc2)[nH]1)C(C)C (stereo partly shown) [A77]
EC50 [1, 2]: < 1 nM
CC50 (GS4.1 cells): > 75000 nM

COC(=O)N[C@H](C(=O)N1CCCC1c1ncc(-c2csc3c(-c4ccc(-c5cnc(C6CCCN6C(=O)[C@@H](NC(=O)OC)C(C)C)[nH]5)cc4)csc23)[nH]1)c1ccccc1 (stereo partly shown) [A78]
EC50 [1, 2]: < 1 nM
CC50 (GS4.1 cells): > 75000 nM

COC(=O)N[C@@H](C(=O)N1CCC[C@H]1C(=O)Nc1ccc(-c2cn3cc(NC(=O)[C@@H]4CCCN4C(=O)[C@H](NC(=O)OC)c4ccccc4)nc3s2)cc1)c1ccccc1 [A79]
EC50 [1, 3]: < 1 nM
CC50 (GS4.1 cells): > 75000 nM

COC(=O)N[C@@H](C(=O)N1CCC[C@H]1C(=O)Nc1ccc(C#Cc2cn3cc(NC(=O)[C@@H]4CCCN4C(=O)[C@H](NC(=O)OC)c4ccccc4)nc3s2)cc1)c1ccccc1 [A80]
EC50 [1, 3]: < 1 nM
CC50 (GS4.1 cells): > 75000 nM

COC(=O)N[C@H](C(=O)N1CCCC1c1cc(-c2ccc(-c3csc4c(-c5ccc(-c6cnc(C7CCCN7C(=O)[C@@H](NC(=O)OC)C(C)C)[nH]6)cc5)csc34)cc2)[nH]n1)C(C)C (stereo partly shown) [A87]
EC50 [1, 2]: < 1 nM
CC50 (GS4.1 cells): > 75000 nM

COC(=O)N[C@H](C(=O)N1CCCC1c1nc(-c2ccc(-c3cn4cc(-c5ccc(-c6cnc([C@@H]7CCCN7C(=O)[C@@H](NC(=O)OC)C(C)C)[nH]6)cc5)sc4n3)cc2)c[nH]1)C(C)C (stereo partly shown) [A93]
EC50 [1, 2]: < 1 nM
CC50 (GS4.1 cells): > 75000 nM

COC(=O)N[C@H](C(=O)N1CCCC1c1ncc(-c2ccc(-c3csc4c(-c5ccccc5)csc34)cc2)[nH]1)C(C)C (stereo partly shown) [A103]
EC50 [1, 2]: 1 to 10 nM
CC50 (GS4.1 cells): 10000 to 75000 nM

COC(=O)N[C@H](C(=O)N1CCCC1c1nc(-c2ccc(-c3sc4cc(-c5ccc(-c6cnc([C@@H]7CCCN7C(=O)[C@@H](NC(=O)OC)C(C)C)[nH]6)cc5)sc4c3-c3ccc(-c4cnc(C5CCCN5C(=O)[C@@H](NC(=O)OC)C(C)C)[nH]4)cc3)cc2)c[nH]1)C(C)C (stereo partly shown) [A105]
EC50 ([1]; Hepatitis C virus, Huh-7, 72 h): 10 to 100 nM
CC50 (GS4.1 cells): 10000 to 75000 nM

COC(=O)N[C@H](C(=O)N1CCCC1c1ncc(-c2cc3sc(-c4ncc(-c5c[nH]c([C@@H]6CCCN6C(=O)[C@@H](NC(=O)OC)C(C)C)n5)s4)cc3s2)[nH]1)C(C)C (stereo partly shown) [A130]
EC50 [1, 2]: < 1 nM
CC50 (GS4.1 cells): > 75000 nM

COC(=O)N[C@H](C(=O)N1CCC[C@H]1C(=O)Nc1cn2cc(-c3ccc(NC(=O)CNC(=O)[C@H](NC(=O)OC(C)(C)C)c4ccccc4)cc3)sc2n1)C(C)C [A147]
EC50 [1, 2]: 10 to 100 nM
CC50 (GS4.1 cells): > 75000 nM

COC(=O)N[C@H](C(=O)N1CCC[C@H]1c1ncc(-c2ccc(-c3cn4cc(NC(=O)CNC(=O)[C@H](NC(=O)OC(C)(C)C)c5ccccc5)nc4s3)cc2)[nH]1)C(C)C [A148]
EC50 [1, 2]: 1 to 10 nM
CC50 (GS4.1 cells): > 75000 nM

COC(=O)N[C@H](C(=O)N1CCC[C@H]1C(=O)Nc1cn2cc(-c3cccc(NC(=O)[C@@H]4CCCN4C(=O)[C@H](NC(=O)OC)c4ccccc4)c3)sc2n1)C(C)C [A149]
EC50 [1, 2]: 10 to 100 nM
CC50 (GS4.1 cells): 10000 to 75000 nM

COC(=O)N[C@H](C(=O)N1CCC[C@H]1c1ncc(-c2ccc(-c3cn4cc(NC(=O)[C@@H]5CCCN5)nc4s3)cc2)[nH]1)C(C)C [A150]
EC50 [1, 3]: 10 to 100 nM
CC50 (GS4.1 cells): 10000 to 75000 nM

COC(=O)N[C@H](C(=O)N1CCCC1c1ncc(-c2ccc(-c3csc4c(-c5cnc(C6CCCN6C(=O)OC(C)(C)C)[nH]5)csc34)cc2)[nH]1)C(C)C (stereo partly shown) [A151]
EC50 [1, 3]: < 1 nM
CC50 (GS4.1 cells): 10000 to 75000 nM

CC(C)(C)OC(=O)N1CCCC1c1ncc(-c2cn3cc(-c4ccc(Cl)cc4)sc3n2)[nH]1 (stereo not shown) [A152]
EC50 [1, 2]: > 100 nM
CC50 (GS4.1 cells): 10000 to 75000 nM

COC(=O)N[C@H](C(=O)N1CCCC1c1ncc(-c2ccc(-c3ccc(-c4nc5sccn5c4Cl)cc3)cc2)[nH]1)C(C)C (stereo partly shown) [A154]
EC50 [1, 2]: 10 to 100 nM
CC50 (GS4.1 cells): 10000 to 75000 nM

COC(=O)N[C@H](C(=O)N1CCC[C@H]1c1cc(-c2ccc(-c3cn4cc(NC(=O)[C@@H]5CCCN5C(=O)[C@H](NC(=O)OC(C)C)c5ccccc5)nc4s3)cc2)[nH]n1)C(C)C [A156]
EC50 [1, 2]: < 1 nM
CC50 (GS4.1 cells): > 75000 nM

CC(C)(C)OC(=O)N1CCCC1c1nc(-c2ccc(-c3cn4cc(-c5ccc(-c6cnc([C@@H]7CCCN7C(=O)OC(C)(C)C)[nH]6)cc5)sc4n3)cc2)c[nH]1 (stereo partly shown) [A157]
EC50 [1, 2]: 10 to 100 nM
CC50 (GS4.1 cells): > 75000 nM

COC(=O)N[C@H](C(=O)N1CCCC1c1nc(-c2ccc(-c3cc4sc(-c5ccc(-c6cnc([C@@H]7CCCN7C(=O)[C@@H](NC(=O)OC)C(C)C)[nH]6)cc5)cc4s3)cc2)c[nH]1)C(C)C (stereo partly shown) [A159]
EC50 [1, 2]: < 1 nM
CC50 (GS4.1 cells): > 75000 nM

COC(=O)N[C@H](C(=O)N1CCCC1c1ncc(-c2ccc(-c3cn4ccsc4n3)cc2)[nH]1)C(C)C (stereo partly shown) [A160]
EC50 [1, 2]: 10 to 100 nM
CC50 (GS4.1 cells): > 75000 nM

CC(C)(C)OC(=O)N1CCCC1c1ncc(-c2ccc(-c3nc4sccn4c3Cl)cc2)[nH]1 (stereo not shown) [A161]
EC50 [1, 2]: > 100 nM
CC50 (GS4.1 cells): > 75000 nM

COC(=O)N[C@H](C(=O)N1CCCC1c1ncc(-c2ccc(-c3cn4c(-c5ccccc5)csc4n3)cc2)[nH]1)C(C)C (stereo partly shown) [A162]
EC50 [1, 2]: 1 to 10 nM
CC50 (GS4.1 cells): 10000 to 75000 nM

CC(C)(C)OC(=O)N1CCCC1c1ncc(-c2ccc(-c3cn4ccsc4n3)cc2)[nH]1 (stereo not shown) [A167]
EC50 [1, 2]: > 100 nM
